From patent US20250345334A1, “METHODS OF TREATING PROSTATE CANCER” (The University of Chicago, priority 2024, published 2025)
“Also recorded” adds a separate entry of the source.

Key:
NCI-H660 cells [1] = test: cells; conditions: Homo sapiens, NCI-H660, 144 h, read-out: % cell viability relative to 10 nM HC treatment
NCI-H660 cells [2] = conditions: 6 days
CWRR1-SOX2KO cells = test: Proliferation assay, Incucyte S3 live imaging of nuclear GFP, CWRR1-SOX2KO cells; format: cell-based, human; conditions: 10% CSS supplemented with R-1881, 150 h
[3] = tested on: E2F1, WEE1, CDK1 and p57 in SOX2KO cells; test: Western blotting in CWRR1-SOX2KO cells; format: cell-based, human; conditions: Western blot
Experimental: FIGS. 1A-1D. RNA-seq in Control (Ctl) and -SOX2Ko Cells. Ctl or SOX2^KO cells were cultured in 10% charcoal-stripped media with vehicle (R-1881) or ENZ for 72 hrs, then total RNA was recovered for RNA-seq. […] (FIG. 1B) Top gene set pathways enriched by KEGG using Web Gestalt for unique, differentially expressed genes in SOX2^KO cells following ENZ treatment relative to vehicle. Pathways are ranked by strength of significance (P-value). (FIG. 1C) Normalized counts from RNA-seq of representative cell cycle-related genes (CDK1, E2F1, WEE1, CDKN2A, TGFB1, and CDKN1C) across treatment conditions for Ctl and SOX2^KO cells are graphed. Error bars for normalized count data represent +/−SEM for triplicate samples in each condition. Asterisks represent significant differences with the following adjusted p-values: **1E-03 to 1E-09, ***1.0E-10 to 1.0E-19, ****[…] 1.0E-20. (FIG. 1D) Western blots in Ctl and SOX2^KO cells treated with (3.5 μM R-1881) vehicle or ENZ ([…]) for SOX2 and cell cycle proteins encoded by highlighted genes: WEE1, E2F1, CDK1, and p57, confirm relative expression levels observed by RNA-seq. j-Actin was blotted as a loading control. […]

CWRR1-Ctl cells [4] = test: Propidium iodide staining, cell cycle status; format: cell-based, human; conditions: 10 μM ENZ, 0.8 μM MK-1775, 6 days
Experimental: FIGS. 5A-5C. […] (FIG. 5A) Western blotting in CWRR1-Ctl cells cultured in 10% CSS supplemented with R-1881 and treated with: Vehicle (R; 3.5 μM R-1881), and AR-inhibited conditions ([…] R/10 μM ENZ)+/−0.8 μM MK-1775 (WEE1 inhibition) comparing phosphorylated Histone H3 (indicator of cells in M phase) and cleaved PARP (indicator of apoptosis). 3-Actin was blotted as a loading control. […] (FIG. 5C) β-galactosidase activity in CWRR1-Ctl cells treated with either 10 μM ENZ or 10 μM ENZ in combination with 0.8 μM MK-1775 for 6 days. […] Error bars for propidium iodide staining and β-galactosidase activity data represent +/−SEM of 6 replicates tested in each condition, respectively.
WEE1 plays a central role in negatively regulating mitotic phase entry (i.e. the G2/M checkpoint) through phosphorylation of CDK1 [29]. […] PARP-1 is a known substrate of caspase-mediated apoptotic cell death, and cleaved PARP (c-PARP) is a hallmark of apoptosis.

[5] = tested on: CWRR1-Ctl xenograft tumors; test: CRPC xenograft model, time to 4x tumor volume; format: in vivo, athymic nude mice; conditions: 10 mg/kg ENZ, 50 mg/kg MK-1775, daily for 30 days; for median time to endpoint (4x tumor volume relative to volume at randomization): censored at day 31
Experimental: To strengthen the correlation between in vitro and […] studies thereby enhancing translational relevance, an in vivo experiment using a CRPC xenograft model was performed. Following inoculation with CWRR1-Ctl cells, tumor bearing athymic nude mice with a measured tumor volume of ˜150-200 mm^3 were randomized into 4 treatment arms: Vehicle (N=5), 10 mg/kg ENZ (N=8), 50 mg/kg MK-1775 (N=8), and 10 mg/kg ENZ+50 mg/kg MK-1775 (N=8). Mice were treated daily for a period of 30 days. Endpoint for this study was defined as time to 4× tumor volume relative to volume at randomization, representing a lethal tumor burden. Mice who had not reached endpoint at 30 days of treatment were censored at day 31. […] Median time to endpoint for vehicle-, ENZ- and WEE1i-treated mice was 21, 29.5 and 29.5 days, respectively, compared to ENZ+WEE1i-treated mice, which was not reached, as 75% of mice remained without defined progression at 31 days (FIG. 4D).

[6] = tested on: CDK1, pCDK1, pHistone H3 and cleaved PARP in CWRR1-Ctl cells; test: Western blotting in CWRR1-Ctl cells; format: cell-based, human; conditions: Western blot
CWRR1-Ctl cells [7] = test: Proliferation assay, Incucyte S3 live imaging of nuclear GFP, SOX2-positive CWRR1-Ctl cells; format: cell-based, human; conditions: 10% CSS supplemented with R-1881, 150 h (~6 days)
[8] = tested on: CDK1, pCDK1 and pHistone H3 in NCI-H660 cells; test: Western blotting in NCI-H660 cells; format: cell-based, human; conditions: Western blot

Compound: Cn1cc(S(=O)(=O)N2CCC3=Cc4c(cnn4-c4ccc(F)cc4)C[C@]3(C(=O)c3cc(C(F)(F)F)ccn3)C2)cn1 [CORT134, relacorilant]
- viability at 1 µM (NCI-H660 cells [1]): 91.8%
- cell viability relative to control (NCI-H660 cells [2]): minimal differences

Compound: C[C@@H]1C[C@H]2[C@@H]3CCC4=CC(=O)C=C[C@]4(C)[C@@]3(F)[C@@H](O)C[C@]2(C)[C@@]1(O)C(=O)CO [DEX, dexamethasone]
- viability at 0.1 µM (NCI-H660 cells [1]): 105%

Compound: CNC(=O)c1ccc(N2C(=S)N(c3ccc(C#N)c(C(F)(F)F)c3)C(=O)C2(C)C)cc1F [ENZ, enzalutamide]
- proliferative capacity compared to vehicle (CWRR1-SOX2KO cells): significantly lower
- E2F1, WEE1 and CDK1 expression levels ([3]; SOX2KO cells upon AR inhibition): notably lower
- p57 expression ([3]; SOX2KO cells with AR antagonism): highest expression
- % cells at G2/M cell cycle phase (CWRR1-Ctl cells [4]): 11.95%
- time to endpoint relative to vehicle [5]: no significant differences
- median time to endpoint (4x tumor volume relative to volume at randomization) [5]: 29.5 days
- phosphorylated Histone H3 (pHistone H3) [6]: low
- proliferative capacity relative to vehicle (CWRR1-Ctl cells [7]): no effect; also recorded: little effect

Compound: C=CCn1c(=O)c2cnc(Nc3ccc(N4CCN(C)CC4)cc3)nc2n1-c1cccc(C(C)(C)O)n1 [MK-1775]
- time to endpoint relative to vehicle [5]: no significant differences
- median time to endpoint (4x tumor volume relative to volume at randomization) [5]: 29.5 days
- cleaved PARP (c-PARP) [6]: increased
- phosphorylated Histone H3 (pHistone H3) [6]: increases appreciably
- pCDK1 protein expression ([6]; when WEE1i was present): markedly lower
- proliferative capacity relative to vehicle (CWRR1-Ctl cells [7]): no significant difference
- pHistone H3 relative to DEX and CORT134 treatment alone [8]: increased
